Measurements as given in patent US9481669B2, “Pladienolide pyridine compounds and methods of use” (Eisai R&D Management Co., Ltd., priority 2014, dated 2016).

Key:
[1] = test system: WiDr-R cells (colon cancer cells, SF3B1 R1074H mutation); conditions: cited from earlier work
[2] = test system: reporter gene controlled by human VEGF promoter; conditions: read-out: IC50, VEGF-promoted gene expression; cited from earlier work
U251 human glioma cells = U251 human glioma cells in vitro; read-out: IC50, glioma cell proliferation; cited from earlier work
[3] = patients; administered as intravenous infusion; cited from earlier work
[4] = pH stability measurement (UPLC, 0.1 N HCl); format: physicochemical; conditions: buffer, 24 h, 148 µM, pH 1
Protocol: Compounds were provided in 96-well plates and tested in triplicate. Four microliters of a 10 mM stock solution of compound in DMSO were distributed into each of three wells. The plate was stored at or below −20° C. until the day of the analysis. Methanol (HPLC grade) and 0.1 N HCl (EMD catalog HX0603A-6) were used for dilutions. Acetonitrile (HPLC grade), water (Milli-Q filtered), trifluoroacetic acid (spectral grade) and 0.2M phosphate buffer (Wako, catalog no. 163-14471) were used to prepare the mobile phase for the two analyses.
Stability data was obtained using a Waters Acquity UPLC equipped with a UV detector (Waters TUV) and single quadrupole MS detector (Waters SQD). The 96-well plate containing the compound(s) of interest was(were) removed from the freezer and allowed to warm to room temperature for one hour. The UPLC was primed, equilibrated and the system performance was verified by injecting a standard. After 1 hour, each of the three wells was diluted with 266 μL 0.1 N HCl to give pH=1. The plate was covered and placed on a shaker (Eppindorf Thermomixer R) for 45 minutes at 600 rpm. The plate was removed from the shaker, and the contents of each well were filtered through a filtration plate (Millipore catalog no. MSSLBPC50) by vacuum and injected into the UPLC. After approximately 24 hours, the contents of the wells were re-injected into the UPLC.
Stability in the various buffers was measured by comparing the peak area- % of the analyte in methanol versus the peak area- % of the analyte at the same retention time in 0.1 N HCl buffer in the 24 hr time point injection.

Row | % parent remaining (pH = 1, 24 hours) [4] [%] | Compound | resistance of WiDr-R cells in terms of growth inhibition [1] | IC50 [2] [nM] | IC50 (U251 human glioma cells) [nM] | oral bioavailability [3]
1 |  | Pladienolide B | resistant to pladienolide B in terms of growth inhibition | 1.8 | 3.5 | 
2 | 44 | CCC(O)C(C)C1OC1CC(C)(O)/C=C/C=C(\C)C1OC(=O)CC(O)CCC(C)(O)C(OC(=O)N2CCN(C3CCCCCC3)CC2)/C=C/C1C (centres unmarked) [Compound E7107, (8E,12E,14E)-7-((4-Cycloheptylpiperazin-1-yl)carbonyl)oxy-3,6,16,21-tetrahydroxy-6,10,12,16,20-pentamethyl-18,19-epoxytricosa-8,12,14-trien-11-olide, reference compound] |  |  |  | insufficient oral bioavailability
